The results in this text go back to PubChem BioAssay AID1996.

A word on the solubility (kinetic): it is solubility judged after dilution from a stock solution rather than from solid.

In brackets after ≈: the same amount, converted by molar mass.

The conditions of this data set: buffer; pH 7.4; 200.0 µM.
`CC(C)c1ccc(NC2CCCN(C(=O)c3cscn3)C2)cc1` (configuration not stated) returned a solubility (kinetic) of over 49.4 µg/mL.
In turn, `CCOc1ccc(CCN2CN(CC)CNC2=S)cc1OCC` registered a solubility (kinetic) of over 50.6 µg/mL.
In the case of `CC1(c2ccccc2Cl)NC(=O)N(CC(=O)Nc2ccc(N3CCOCC3)cc2)C1=O` (configuration not stated), the kinetic solubility is over 66.4 µg/mL.
For `Cc1c(-c2ccccc2)cnc2c(C)cccc12`, the kinetic solubility was under 0.5 µg/mL.
In turn, `COC(=O)[C@H](C)NC(=O)NCc1ccc(S(N)(=O)=O)cc1` yielded a kinetic solubility of over 47.3 µg/mL.
The molecule `CN(C(=O)c1ccc(-c2ccccc2)cc1)C1CCCCC1` showed a kinetic solubility of 1.5 µg/mL (≈ 5.11 µM).
The molecule `Cc1ccc(C)c(S(=O)(=O)N2CCN(C(=O)c3cccnc3)CC2)c1` registered a solubility (kinetic) of 50.8 µg/mL (≈ 141 µM).
`CCC1(CC)Cc2ccccc2-c2nc(CN(C)C)[nH]c(=O)c21` registered a solubility (kinetic) of 10.8 µg/mL (≈ 34.7 µM).
In the case of `N#Cc1ncccc1CCc1cccc(Cl)c1` it was 22.4 µg/mL (≈ 92.3 µM); in that of `S=c1nc(NCc2ccc3c(c2)OCO3)c2ccccc2[nH]1`, 0.6 µg/mL (≈ 1.93 µM).
Molecule `COc1ccc(NS(=O)(=O)c2cn(C)c(=O)n(C)c2=O)cc1` gave a solubility (kinetic) of over 48.8 µg/mL.
The molecule `COCCN(C(=O)c1ccccc1OC)c1nnc(C)s1` displayed a kinetic solubility of over 46.1 µg/mL.
`CCCCNC(=O)NC(C(N)=O)P(=O)(OCC)OCC` (configuration not stated): the solubility (kinetic) is over 46.4 µg/mL.
In turn, `O=[N+]([O-])c1cccc(-c2noc(-c3ccco3)n2)c1` had a solubility (kinetic) of 1.7 µg/mL (≈ 6.61 µM).
Consider `Cc1nc(N2CCCCC2)c(C#N)c(C)c1[N+](=O)[O-]`, for which the solubility (kinetic) is 3.8 µg/mL (≈ 14.6 µM).
`CC(C)n1c(NCc2ccc(Cl)cc2)nc2ccccc21` gave a solubility (kinetic) of 0.7 µg/mL (≈ 2.33 µM).
On to `CC(C)C(NS(=O)(=O)c1cccc(C(F)(F)F)c1)C(=O)O` (configuration not stated), for which the solubility (kinetic) was over 48.8 µg/mL.
In the case of `CC(OC(=O)c1ccc2c(c1)NC(=O)CS2)C(=O)c1ccc(F)cc1` (configuration not stated) it was 18.1 µg/mL (≈ 50.4 µM).
In the case of `CC1C(=O)Nc2ccccc2N1C(=O)c1ccc(Cl)c(Cl)c1` (configuration not stated) it was 36.2 µg/mL (≈ 108 µM).
The same measure for `CC(C)CCNC(=O)c1cc2c(=O)n3ccccc3nc2s1`: 4.6 µg/mL (≈ 14.6 µM); for `CCCNC(=O)c1ccc(COc2cccc3ccccc23)o1`: 15.8 µg/mL (≈ 51.1 µM); for `CN(C)CC#CCC(O)(c1ccccc1)C1CCCCC1` (configuration not stated): 42.7 µg/mL (≈ 150 µM).
Turning to `COc1ccc(NC(=O)CSc2ccc3c(c2)OCCO3)cc1S(N)(=O)=O`, the solubility (kinetic) was over 61.6 µg/mL.
In turn, `CN(CC(=O)Nc1ccccc1)CC(=O)Nc1ccccc1Cl` returned a solubility (kinetic) of over 49.8 µg/mL.
Take `COc1ccc(C2C(C#N)=C(N)Oc3c2oc(CO)cc3=O)cc1` (configuration not stated): the kinetic solubility is over 48.9 µg/mL.
`CC(=O)N1CCN(C(=O)c2cc3c(s2)CCCC3)CC1` came in with a kinetic solubility of over 43.9 µg/mL.
`CCn1c2ccccc2c2cc(CC(N)=O)ccc21`: the solubility (kinetic) worked out at 8 µg/mL (≈ 31.7 µM).
In the case of `CCOC(=O)c1c(C)[nH]c(C(=O)N2CCN(CC)CC2)c1C` it was over 46.1 µg/mL; in that of `CCCNC(=S)N1CCC(NC(=O)Nc2ccc(C)cc2)CC1`, 4.9 µg/mL (≈ 14.6 µM).
On to `COc1cccc(OC)c1C(=O)NC(=O)Nc1c(F)cc(F)cc1F`, for which the kinetic solubility was 5.4 µg/mL (≈ 15.2 µM).
With `O=C(/C=C/c1c(Cl)cccc1Cl)NCCCn1ccnc1`, the kinetic solubility is 46.1 µg/mL (≈ 142 µM).
`CC1(C)C2CCC1(C)C(NC(=O)/C=C/c1ccccc1)C2` (configuration not stated) gave a solubility (kinetic) of 8.9 µg/mL (≈ 31.4 µM).
Take `Cc1ccccc1CC1(CO)CCCN(C(=O)CCC(F)(F)F)C1` (configuration not stated): the solubility (kinetic) is 48.3 µg/mL (≈ 141 µM).
The same measure for `CCOc1ccccc1NC(=O)Nc1ccc2c(c1)CCC2`: under 0.3 µg/mL.
`CC(=O)Nc1nc(C)c(-c2nc3ccc([N+](=O)[O-])cc3[nH]2)s1`: the solubility (kinetic) was found to be 1.2 µg/mL (≈ 3.78 µM).
Take `O=C(Nc1ccccc1-c1ccccc1)C1CCCC1`: the solubility (kinetic) was found to be 32.4 µg/mL (≈ 122 µM).
Molecule `COc1ccc(C(=O)N[C@H](C(=O)NCCCSc2ccccc2)C(C)C)cc1` yielded a kinetic solubility of 2.2 µg/mL (≈ 5.49 µM).
On to `COc1cc(NC(=S)N2CCCC2)cc(OC)c1`, for which the solubility (kinetic) was 34.8 µg/mL (≈ 131 µM).
The same measure for `CC(=O)c1ccc(S(=O)(=O)Nc2ccc(S(=O)(=O)N3CCCCC3)cc2)cc1`: over 63.4 µg/mL; for `COc1cccc(COc2ncnc3sccc23)c1`: 37.2 µg/mL (≈ 137 µM).
On to `COC(=O)C1=C(C(=O)OC)SC(=C2C(=S)C(C)(C)N(C(=O)C3CC3)c3ccccc32)S1`, for which the kinetic solubility turned out to be 11.2 µg/mL (≈ 23.5 µM).
Molecule `O=C(NCCc1ccccc1)C1CCC(=O)N1C1CCCC1` (configuration not stated) displayed a kinetic solubility of over 45.1 µg/mL.
In the case of `CCn1c(C)cc(O)cc1=O` it was over 23 µg/mL; in that of `COC(=O)[C@H](C)NC(=O)NCCC1=CCCCC1`, over 38.1 µg/mL.
With `Cc1cc(NC(=O)CS(=O)(=O)c2ccc(Cl)cc2)no1`, the kinetic solubility came out at 14.4 µg/mL (≈ 45.8 µM).
`O=C(COc1ccccc1)N1CCN=C1SCc1ccc(F)cc1` gave a solubility (kinetic) of 6.4 µg/mL (≈ 18.6 µM).
In the case of `CCN(Cc1ccccc1)C(=O)c1cc2c(OC)c(OC)c(OC)cc2[nH]1` it was 31.8 µg/mL (≈ 86.3 µM); in that of `Cc1ccccc1CC(=O)Nc1ccon1`, 30.3 µg/mL (≈ 140 µM).
With `O=C(O)c1ccc(N=Cc2c(O)[nH]c(=O)[nH]c2=O)cc1`, the solubility (kinetic) is over 41.3 µg/mL.
In turn, `CC(OC(=O)c1ccc(Cl)nc1)C(=O)NC1CCCC1` (configuration not stated) had a kinetic solubility of 24.7 µg/mL (≈ 83.2 µM).
With `CC(NC(=O)COC(=O)CN1C(=O)c2ccccc2C1=O)c1ccccc1` (configuration not stated), the solubility (kinetic) is over 55 µg/mL.
In the case of `O=C(O)Cn1cc(C=C2C(=O)NC(=O)NC2=O)c2ccccc21`, the kinetic solubility was over 47 µg/mL.
The same measure for `O=C1OC(c2ccc(F)cc2)=N/C1=C\c1ccc(Br)o1`: 9.6 µg/mL (≈ 28.6 µM); for `Cc1ccccc1OCC1Cn2c(nc3c2c(=O)n(C)c(=O)n3C)O1` (configuration not stated): over 51.4 µg/mL.
Take `Cn1c(SCC(=O)NC2CCCC2)nnc1-c1ccccn1`: the solubility (kinetic) was over 47.6 µg/mL.
The same measure for `Cl.O=C(CCl)N1CCN(CC(=O)N2CCCC2)CC1`: over 46.5 µg/mL; for `COc1ccc(OC)c(/C=C(\C)C(=O)c2c(C)cc(C)[nH]c2=O)c1`: 40.4 µg/mL (≈ 123 µM); for `Cc1ccc2cc(NC(=O)Cc3ccccc3)ccc2n1`: 32.6 µg/mL (≈ 118 µM).
On to `COc1ccc(CCNC(=O)CN2C(=O)NC(c3ccccc3)(c3ccccc3)C2=O)cc1`, for which the solubility (kinetic) was found to be 10 µg/mL (≈ 22.5 µM).
In the case of `Cc1ccc(NC(=O)CN2CCCC2c2cccn2C)c(Br)c1` (configuration not stated), the solubility (kinetic) worked out at 11.4 µg/mL (≈ 30.3 µM).
Molecule `COc1ccc(/C=C/C(=O)O)cc1S(=O)(=O)NCC1CCCO1` (configuration not stated) returned a kinetic solubility of 41.3 µg/mL (≈ 121 µM).
The molecule `CC12CCC(=O)N1C(C(=O)Nc1ccc(F)cc1)CS2` (configuration not stated) came in with a kinetic solubility of over 44.2 µg/mL.
In the case of `CSc1nccc(Oc2ccccc2Cl)n1` it was 6.8 µg/mL (≈ 26.9 µM).
`Cc1ccc(C2C(C#N)=C(N)Oc3cc(N)ccc32)cc1` (configuration not stated): the kinetic solubility was 4.4 µg/mL (≈ 15.9 µM).
With `Cc1noc(C)c1CC(=O)Nc1ccc2c(c1)OCO2`, the solubility (kinetic) is over 41.1 µg/mL.
Molecule `Cc1cc(NC(=O)c2ccc(Cl)c([N+](=O)[O-])c2)no1` returned a kinetic solubility of 0.8 µg/mL (≈ 2.84 µM).
Molecule `COc1ccc(C(=O)N2CCN=C2SC)cc1` yielded a kinetic solubility of over 37.5 µg/mL.
`Cn1c(C(=O)N[C@@H](Cc2ccccc2)C(=O)O)cc2cc(Cl)ccc21` had a kinetic solubility of over 53.5 µg/mL.
Molecule `Cc1cc(NC(=O)CSc2nc3ccccc3n2CCC#N)no1` registered a solubility (kinetic) of 7.7 µg/mL (≈ 22.6 µM).
Take `CC1CCCN(CCS(=O)(=O)c2ccccc2)C1` (configuration not stated): the solubility (kinetic) was 39.5 µg/mL (≈ 148 µM).
The same measure for `COc1ccc(N2CCN(S(=O)(=O)c3cn(C)c(=O)n(C)c3=O)CC2)cc1`: 17.9 µg/mL (≈ 45.4 µM); for `CCC(=O)Nc1cccc(-c2nc3ncccc3o2)c1C`: over 42.2 µg/mL; for `Cc1cccc(NC(=O)C(=O)NCc2ccc3c(c2)OCO3)c1C`: 2 µg/mL (≈ 6.13 µM).
In the case of `Cc1ccc(NC2=CC(=O)CC(C)(C)C2)cc1F` it was 31.5 µg/mL (≈ 127 µM); in that of `Cc1ccccc1NC(=O)CN1C(=O)c2ccccc2C1=O`, 8.5 µg/mL (≈ 28.9 µM).
Molecule `COC(=O)c1cc(S(=O)(=O)N2CCCCC2C)c[nH]1` (configuration not stated) gave a solubility (kinetic) of over 43 µg/mL.
Molecule `C=CCNC(=O)COc1ccc(Oc2ccccc2)cc1` showed a solubility (kinetic) of over 42.5 µg/mL.
Molecule `CC(C)(/C=N/O)N(O)C=C1C=CC(=O)C=C1` yielded a kinetic solubility of over 33.3 µg/mL.
The same measure for `O=C(NCC(c1ccco1)N1CCCCC1)c1ccc(S(=O)(=O)Nc2ccccc2Cl)cc1` (configuration not stated): 17.7 µg/mL (≈ 36.3 µM); for `COc1cc(OC)cc(C(=O)NC(C(=O)NCCc2ccccn2)C(C)C)c1` (configuration not stated): over 57.8 µg/mL.
The same measure for `COc1ccc2c(c1)-c1nc(/N=C/c3ccc(O)cc3)sc1CC2`: 34 µg/mL (≈ 101 µM); for `CC(NC1CCN(Cc2ccccc2)CC1)c1ccc(F)cc1` (configuration not stated): 42.3 µg/mL (≈ 135 µM).
Take `O=C(COC(=O)[C@@H]1CC(O)CN1S(=O)(=O)c1ccc2c(c1)OCCO2)Nc1cc(F)ccc1F` (some centres not stated): the solubility (kinetic) was over 74.8 µg/mL.
In the case of `COC(=O)Cn1c(=O)c(C)nc2ccccc21` it was over 34.8 µg/mL.
`Cc1cc(C)c(S(=O)(=O)c2cc(F)ccc2C)c(=O)[nH]1` registered a solubility (kinetic) of 13.3 µg/mL (≈ 45 µM).
`Cc1cc(NC(=O)CSc2nc3c(C)c(C)ccc3cc2C)no1` yielded a kinetic solubility of under 0.2 µg/mL.
The same measure for `CC(=O)Nc1cccc(C(=O)N2CCN(S(=O)(=O)Cc3ccccc3)CC2)c1`: over 60.2 µg/mL.
In turn, `C=CCOCC(O)Cn1c(N2CCCC2)nc2c1c(=O)[nH]c(=O)n2C` (configuration not stated) had a kinetic solubility of over 52.4 µg/mL.
`Cc1cc(=S)nc(-c2ccccn2)[nH]1` returned a kinetic solubility of 28.6 µg/mL (≈ 141 µM).
In the case of `Cc1cccc(/N=C/c2sc3ccccc3c2O)n1`, the solubility (kinetic) was 1.1 µg/mL (≈ 4.1 µM).
`COc1ccc(CCNC(=O)CN(C)S(=O)(=O)c2ccc(OC)cc2)cc1` showed a kinetic solubility of over 58.9 µg/mL.
Take `CC(C)c1ccccc1NC1=NCCCS1`: the kinetic solubility is 35 µg/mL (≈ 149 µM).
The molecule `N/C(=N\OC(=O)c1cccc2ccccc12)c1ccccn1` returned a kinetic solubility of 38.2 µg/mL (≈ 131 µM).
Molecule `NC(=O)c1ccccc1NC(=O)Nc1ccc(F)c(Cl)c1` returned a kinetic solubility of 2.1 µg/mL (≈ 6.82 µM).
In turn, `CNCCc1ccccn1.Cl` came in with a solubility (kinetic) of over 31.4 µg/mL.
On to `O=C(COC(=O)c1cccc(O)c1)NC(=O)Cc1ccccc1`, for which the kinetic solubility is over 47 µg/mL.
For `CCN(CC(=O)Nc1ccccc1OC)C(=O)CC1CCCC1`, the solubility (kinetic) is over 47.8 µg/mL.
Take `COc1cccc(CNC(=O)c2cccnc2Sc2ccccc2)c1`: the kinetic solubility was 5.6 µg/mL (≈ 16 µM).
Molecule `Cc1sc(NC(=O)CN2CCOCC2)c(C#N)c1C` returned a kinetic solubility of over 41.9 µg/mL.
Take `Cc1cc(C)cc(NC(=S)N2CC(C)OC(C)C2)c1` (configuration not stated): the solubility (kinetic) is 35.1 µg/mL (≈ 126 µM).
`CCN(CC)C(=O)c1ccc(S(=O)(=O)c2ccccc2)cc1`: the kinetic solubility worked out at 33.6 µg/mL (≈ 106 µM).
As to `CCOC(=O)c1c(C)oc2c1c(C=NCC1CCCO1)c(O)c1ccccc12` (configuration not stated), the solubility (kinetic) was under 0.8 µg/mL.
